Results as given in patent US20210355539A1, “BIOMARKERS FROM MINIMALLY INVASIVE SAMPLING REFLECTIVE OF THE PLACENTAL IMMUNE MICROENVIRONMENT” (NEW YORK UNIVERSITY, priority 2020, published 2021).
Like-named read-outs stand apart in the source and are kept apart here.

Key:
term placental explants = assay: Term placental explants treated with LPS and Cytochalasin-D, TNF-α ELISA; type: cell-based, human; conditions: 2 LPS doses and Cytochalasin-D (9.8 uM)
Description: Human first and second trimester placentas from elective termination of normal pregnancies (8 to 23 weeks gestation) were collected. The second trimester placenta samples were obtained after elective terminations induced by mechanical evacuation only. Human first and second trimester and term placentas were also collected from vaginal delivery or C-section. A placental explant system was used to preserve the normal cellular architecture. Placental samples from term and third trimester were collected from the maternal side as previously described (Kim et al., 2018, Am J Reprod Immunol, December 26: e13080). Placental explants were processed immediately after collection and prepared as previously described (Peltier et al., 2013, Am J Reprod Immunol, 69: 142e149). […]
Supernatant cytokine concentrations were analyzed using Ready-Set-Go™ ELISA kits (eBioscience; San Diego, Calif.). The measured cytokines included TNF-a, IL-1b and IL-10 and the concentrations were expressed in pg/ml.
For this reason, the kit was utilized for all of the following experiments to isolate EVs. […] Media were collected and analyzed. […] THP-1 cell culture media was collected after 24 h, and TNF-α levels were analyzed by ELISA (FIG. 2E). […]

human placenta = conditions: cited from earlier work

Compound	TNF-α production (term placental explants)	effect on LPS induced inflammation and TNF-α production (human placenta; Speer et al., 2017, listed as pentoxifylline)	effect on LPS induced inflammation and TNF-α production (human placenta; Speer et al., 2017)
C=C1[C@@H](C)[C@H]2[C@H](Cc3ccccc3)NC(=O)[C@]23[C@H](OC(C)=O)/C=C/[C@@](C)(O)C(=O)[C@@H](C)C/C=C/[C@H]3[C@@H]1O [Cytoclasin-D, Cytochalasin-D]	18979 ± 7626 pg/mL	–	–
CC(=O)CCCCn1c(=O)c2c(ncn2C)n(C)c1=O [Pentoxixyline, pentoxifylline]	–	inhibits LPS induced TNF-α	inhibited LPS induced inflammation and TNF-α production
